Results taken from patent US10383332B2, “Antimicrobial compositions and related methods of use” (Jeneil Biosurfactant Company, LLC, priority 2013, dated 2019).

What was measured:
Assay in all cases: Vapor test, microcup on PDA Petri plate
Conditions in all cases: vapors
Aspergillus fumigatus = tested on: Aspergillus fumigatus
Botrytis alli = tested on: Botrytis alli
Geotrichum candidum = tested on: Geotrichum candidum
Pythium ultimum = tested on: Pythium ultimum
Rhizoctonia solani = tested on: Rhizoctonia solani
Phytophthora palmivora = tested on: Phytophthora palmivora
Aspergillus niger = tested on: Aspergillus niger
Cercospora beticola = tested on: Cercospora beticola

For CCC(=O)O [Propanoic Acid, propanoic acid], the “% inhibition, alone at 20 μl After 24 hr (C)” value (shortened to “% inhibition, alone”) (Aspergillus fumigatus) was 0%, the “Alive or dead, alone at 20 μl After 24 hr (C)” value (“Alive or dead, alone” for short) (Aspergillus fumigatus) was “Alive” and the “% inhibition, alone” value (Botrytis alli) was 0%. The “Alive or dead, alone” value (Botrytis alli) was “Alive”, the “% inhibition, alone” value (Geotrichum candidum) was 0% and the “Alive or dead, alone” value (Geotrichum candidum) was “Alive”. For the same molecule, the “% inhibition, alone” value (Pythium ultimum) was 80%, the “Alive or dead, alone” value (Pythium ultimum) was “Alive” and the “% inhibition, alone” value (Rhizoctonia solani) was 80%. The “Alive or dead, alone” value (Rhizoctonia solani) was “Alive”, the “% inhibition, alone” value (Phytophthora palmivora) was 100% and the “% inhibition, alone” value (Aspergillus niger) was 0%. For the same molecule, the “Alive or dead, alone” value (Aspergillus niger) was “Alive”, the “% inhibition, alone” value (Cercospora beticola) was 75% and the “Alive or dead, alone” value (Cercospora beticola) was “Alive”.
